# In ChEMBL document CHEMBL1201862, “PubChem BioAssay data set” (2004):
# Activity calls are given as the source filed them.
# What was measured:
# [1] = microbe, parasite or virus in culture; type: functional; details: Mycobacterium tuberculosis
# Melanocortin receptor 4 [2] = target: T1, Melanocortin receptor 4 (Homo sapiens, UniProt P32245); type: functional, cell-based;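 also: Cell-based assay with luminescence read-out, confirmatory dose-response testing for agonist activity of biased ligands at MC4R; human U2OS cells with tagged receptor and beta-arrestin; potency of agonists that increase receptor coupling to beta-arrestin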
# T1 sequence (P32245 whole entry): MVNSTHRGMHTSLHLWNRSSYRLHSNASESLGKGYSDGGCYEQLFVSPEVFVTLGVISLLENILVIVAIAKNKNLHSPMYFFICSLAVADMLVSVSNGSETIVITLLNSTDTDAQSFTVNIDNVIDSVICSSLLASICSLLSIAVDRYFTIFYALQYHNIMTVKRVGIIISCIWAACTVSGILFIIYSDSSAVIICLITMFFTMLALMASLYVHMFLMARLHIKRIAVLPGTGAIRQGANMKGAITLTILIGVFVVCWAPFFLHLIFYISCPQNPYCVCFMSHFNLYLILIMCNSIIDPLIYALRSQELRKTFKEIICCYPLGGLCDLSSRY
# Protein Wnt-3a = Protein Wnt-3a (Mus musculus, UniProt P27467); experiment: Wnt3a-driven reporter signaling inhibition, dose response, selectivity assay for Gli-SUFU antagonist project, Wnt-LIGHT cells, luminescence (AID 651570); type: functional; details: read-out: IC50_Mean;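 also: Wnt-LIGHT reporter cells stimulated with conditioned medium from Wnt3a-producing cells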
# Sequence of Protein Wnt-3a (P27467 whole entry): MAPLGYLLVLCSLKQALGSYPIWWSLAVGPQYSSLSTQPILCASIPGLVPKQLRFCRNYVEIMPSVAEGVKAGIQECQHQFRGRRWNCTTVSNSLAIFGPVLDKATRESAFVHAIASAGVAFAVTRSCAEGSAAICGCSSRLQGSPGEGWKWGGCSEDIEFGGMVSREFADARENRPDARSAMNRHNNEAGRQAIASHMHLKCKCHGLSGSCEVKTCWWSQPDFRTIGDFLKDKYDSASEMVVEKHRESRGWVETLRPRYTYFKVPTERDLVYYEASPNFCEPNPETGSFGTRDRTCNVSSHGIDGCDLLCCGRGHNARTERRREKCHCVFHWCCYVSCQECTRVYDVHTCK
# [3] = test system: Streptococcus sp. 'group A'; experiment: growth inhibition of control SK(-) GAS strain, dose response, counter-screen for streptokinase expression inhibitor project, luminescence, kanamycin, BacTiterGlo, confirmation (AID 1900); type: functional, organism-based
# Streptococcus = experiment: Group A Streptococcus viability loss, dose response, counter-screen for streptokinase expression inhibitor project, luminescence, BacTiterGlo (AID 1915); type: functional, organism-based;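 also: potency for reduction of bacterial viability or growth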
# [4] = target: 26S proteasome non-ATPase regulatory subunit 14 (Homo sapiens, UniProt O00487); experiment: inhibition of proteasome subunit RPN11 – biochemical, fluorescence polarization, uHTS hits, confirmation (AID 602368); type: functional
# Sequence of 26S proteasome non-ATPase regulatory subunit 14 (O00487 whole entry): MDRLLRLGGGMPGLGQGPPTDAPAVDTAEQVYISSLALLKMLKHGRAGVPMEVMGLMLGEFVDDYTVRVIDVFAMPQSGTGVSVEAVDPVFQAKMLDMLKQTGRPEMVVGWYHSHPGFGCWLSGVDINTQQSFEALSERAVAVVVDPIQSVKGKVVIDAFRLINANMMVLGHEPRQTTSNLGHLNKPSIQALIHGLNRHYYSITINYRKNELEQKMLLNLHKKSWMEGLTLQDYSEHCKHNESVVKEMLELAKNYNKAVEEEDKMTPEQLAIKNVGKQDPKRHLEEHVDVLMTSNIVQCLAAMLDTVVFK
# [5] = target: 72 kDa type IV collagenase (Homo sapiens, UniProt P08253); experiment: Dose Response validation of uHTS RPN11 inhibitor hits using a MMP-2 Fluorescence assay.; type: functional
# Sequence of 72 kDa type IV collagenase (P08253 whole entry): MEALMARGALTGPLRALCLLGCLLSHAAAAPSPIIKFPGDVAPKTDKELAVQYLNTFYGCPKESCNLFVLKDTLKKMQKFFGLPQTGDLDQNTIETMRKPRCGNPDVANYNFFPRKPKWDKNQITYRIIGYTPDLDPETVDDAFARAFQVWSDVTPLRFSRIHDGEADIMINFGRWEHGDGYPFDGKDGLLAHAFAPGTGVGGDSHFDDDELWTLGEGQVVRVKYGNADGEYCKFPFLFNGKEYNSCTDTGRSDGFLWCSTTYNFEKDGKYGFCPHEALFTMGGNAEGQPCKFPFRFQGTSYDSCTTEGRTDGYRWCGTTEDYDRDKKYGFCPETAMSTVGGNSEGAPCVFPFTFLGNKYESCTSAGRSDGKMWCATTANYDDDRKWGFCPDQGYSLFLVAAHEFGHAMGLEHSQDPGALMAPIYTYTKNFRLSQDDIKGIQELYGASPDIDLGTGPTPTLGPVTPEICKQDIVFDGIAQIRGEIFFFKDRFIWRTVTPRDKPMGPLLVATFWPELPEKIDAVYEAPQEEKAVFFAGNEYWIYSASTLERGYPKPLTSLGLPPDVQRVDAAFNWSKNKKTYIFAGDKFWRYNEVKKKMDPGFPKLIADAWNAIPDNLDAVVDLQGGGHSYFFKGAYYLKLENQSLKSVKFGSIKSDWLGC
# Prothrombin = Prothrombin (Bos taurus, UniProt P00735); experiment: thrombin inhibition, dose response, biochemical, fluorescence polarization, uHTS hits (AID 602369); type: functional
# [6] = target: Potassium voltage-gated channel subfamily KQT member 2 (Rattus norvegicus, UniProt O88943); experiment: KCNQ2 potassium channel inhibitors, dose response, cell-based, automated electrophysiology, set II, rat KCNQ2 (AID 588637); type: functional
# [7] = target: Ras and Rab interactor 1/Tyrosine-protein kinase ABL1 (Homo sapiens, UniProt P00519+Q13671); type: functional;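 also: biochemical TR-FRET dose-response test measuring inhibition of binding between Rin1 and Abl proteins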
# Sequence of Ras and Rab interactor 1/Tyrosine-protein kinase ABL1 (P00519 whole entry): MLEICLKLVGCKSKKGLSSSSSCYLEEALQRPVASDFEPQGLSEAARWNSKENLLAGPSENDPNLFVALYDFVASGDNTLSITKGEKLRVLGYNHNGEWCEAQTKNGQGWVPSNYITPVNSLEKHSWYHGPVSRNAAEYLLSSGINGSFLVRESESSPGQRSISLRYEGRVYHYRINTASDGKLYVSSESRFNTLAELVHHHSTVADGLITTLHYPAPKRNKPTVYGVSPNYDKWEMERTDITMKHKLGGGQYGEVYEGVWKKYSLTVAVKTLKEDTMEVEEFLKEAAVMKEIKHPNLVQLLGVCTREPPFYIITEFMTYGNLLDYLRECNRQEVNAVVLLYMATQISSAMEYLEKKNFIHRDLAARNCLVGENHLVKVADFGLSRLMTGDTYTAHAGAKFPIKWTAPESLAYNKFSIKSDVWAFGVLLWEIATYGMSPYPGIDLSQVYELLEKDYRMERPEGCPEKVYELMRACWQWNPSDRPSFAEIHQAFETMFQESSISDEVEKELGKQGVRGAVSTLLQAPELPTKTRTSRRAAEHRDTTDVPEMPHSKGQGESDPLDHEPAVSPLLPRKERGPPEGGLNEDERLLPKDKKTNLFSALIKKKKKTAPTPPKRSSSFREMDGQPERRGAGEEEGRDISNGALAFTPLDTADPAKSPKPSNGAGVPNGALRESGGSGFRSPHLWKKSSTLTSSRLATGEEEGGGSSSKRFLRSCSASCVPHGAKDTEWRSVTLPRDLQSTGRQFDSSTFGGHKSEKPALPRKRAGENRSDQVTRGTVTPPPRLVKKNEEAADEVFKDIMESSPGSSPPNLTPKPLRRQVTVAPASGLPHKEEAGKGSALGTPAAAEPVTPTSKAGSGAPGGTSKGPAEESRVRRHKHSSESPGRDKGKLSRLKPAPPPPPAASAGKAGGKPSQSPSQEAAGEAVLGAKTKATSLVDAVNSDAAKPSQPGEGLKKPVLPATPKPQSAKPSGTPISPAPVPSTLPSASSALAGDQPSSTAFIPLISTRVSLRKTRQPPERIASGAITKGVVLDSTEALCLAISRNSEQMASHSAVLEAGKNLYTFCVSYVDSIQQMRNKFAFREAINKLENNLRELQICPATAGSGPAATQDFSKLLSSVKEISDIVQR
# Sequence of Ras and Rab interactor 1/Tyrosine-protein kinase ABL1 (Q13671 whole entry): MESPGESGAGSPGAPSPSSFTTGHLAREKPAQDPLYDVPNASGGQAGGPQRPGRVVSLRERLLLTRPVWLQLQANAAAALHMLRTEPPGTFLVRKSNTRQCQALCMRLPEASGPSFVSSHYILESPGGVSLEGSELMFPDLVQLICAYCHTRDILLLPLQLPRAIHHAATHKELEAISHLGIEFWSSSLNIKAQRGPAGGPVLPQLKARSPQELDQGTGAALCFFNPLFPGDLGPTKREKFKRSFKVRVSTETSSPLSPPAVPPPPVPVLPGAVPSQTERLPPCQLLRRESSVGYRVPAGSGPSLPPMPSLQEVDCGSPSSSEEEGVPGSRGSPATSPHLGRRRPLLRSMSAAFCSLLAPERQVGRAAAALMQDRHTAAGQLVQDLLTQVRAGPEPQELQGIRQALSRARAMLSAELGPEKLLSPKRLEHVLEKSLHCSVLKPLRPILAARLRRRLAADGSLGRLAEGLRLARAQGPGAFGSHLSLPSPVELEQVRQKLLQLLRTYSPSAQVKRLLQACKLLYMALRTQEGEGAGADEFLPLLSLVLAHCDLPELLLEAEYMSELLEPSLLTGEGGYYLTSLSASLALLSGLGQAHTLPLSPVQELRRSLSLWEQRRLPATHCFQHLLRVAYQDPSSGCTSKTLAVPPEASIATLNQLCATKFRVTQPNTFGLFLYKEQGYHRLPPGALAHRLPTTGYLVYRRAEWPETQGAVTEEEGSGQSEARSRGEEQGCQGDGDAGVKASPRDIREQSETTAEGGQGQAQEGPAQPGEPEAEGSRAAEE
# [8] = target: T2, DNA dC->dU-editing enzyme APOBEC-3A (Homo sapiens, UniProt P31941); experiment: Dose Response confirmation of small molecule APOBEC3A DNA Deaminase Inhibitors via a fluorescence-based single-stranded DNA deaminase assay. [Related pubchem assays (depositor defined):AID493011, AID493024]; type: functional
# T2 sequence (P31941 whole entry): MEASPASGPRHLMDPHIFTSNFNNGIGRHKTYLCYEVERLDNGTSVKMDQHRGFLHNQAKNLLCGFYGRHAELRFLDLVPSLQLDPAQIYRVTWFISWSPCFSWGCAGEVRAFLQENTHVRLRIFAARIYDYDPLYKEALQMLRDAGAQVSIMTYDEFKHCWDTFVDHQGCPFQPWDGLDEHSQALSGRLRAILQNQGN
# [9] = target: T3, DNA dC->dU-editing enzyme APOBEC-3G (Homo sapiens, UniProt Q9HC16); type: functional
# T3 sequence (Q9HC16 whole entry): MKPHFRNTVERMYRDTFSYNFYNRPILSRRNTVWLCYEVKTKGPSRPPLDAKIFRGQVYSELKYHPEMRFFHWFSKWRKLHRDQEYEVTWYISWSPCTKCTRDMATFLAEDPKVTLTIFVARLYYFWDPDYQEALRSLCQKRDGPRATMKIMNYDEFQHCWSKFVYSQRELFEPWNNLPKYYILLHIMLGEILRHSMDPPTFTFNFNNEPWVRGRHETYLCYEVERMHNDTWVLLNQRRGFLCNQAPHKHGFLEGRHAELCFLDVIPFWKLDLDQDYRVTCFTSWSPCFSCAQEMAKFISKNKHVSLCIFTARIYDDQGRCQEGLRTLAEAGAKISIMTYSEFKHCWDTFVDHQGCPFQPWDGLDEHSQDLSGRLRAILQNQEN
# [10] = target: T2, DNA dC->dU-editing enzyme APOBEC-3A; experiment: SAR analysis of small molecule inhibitors of APOBEC3A DNA Deaminase via a fluorescence-based single-stranded DNA deaminase assay - Set 2.; type: functional; details: read-out: IC50_Mean
# [11] = target: T3, DNA dC->dU-editing enzyme APOBEC-3G; experiment: SAR analysis of small molecule inhibitors of APOBEC3G DNA Deaminase via a fluorescence-based single-stranded DNA deaminase assay - Set 2.; type: functional; details: read-out: IC50_Mean
# [12] = target: T3, DNA dC->dU-editing enzyme APOBEC-3G; experiment: APOBEC3G deaminase inhibitors, SAR follow-up, biochemical, fluorescence, single-stranded DNA substrate (AID 602136); type: functional; details: read-out: IC50_Mean
# [13] = target: T2, DNA dC->dU-editing enzyme APOBEC-3A; experiment: SAR analysis of small molecule inhibitors of APOBEC3A DNA Deaminase via a fluorescence-based single-stranded DNA deaminase assay.; type: functional; details: read-out: IC50_Mean
# [14] = target: T4, Mitochondrial peptide methionine sulfoxide reductase (Bos taurus, UniProt P54149); type: functional;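 also: absorbance read-out, biochemical high-throughput dose-response screen for MsrA inhibitors, confirmatory; recombinant bovine MsrA coupled to E. coli TrxB with NADPH and selenocystamine; potency is for inhibitors of MsrA activity on DMSO substrate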
# T4 sequence (P54149 whole entry): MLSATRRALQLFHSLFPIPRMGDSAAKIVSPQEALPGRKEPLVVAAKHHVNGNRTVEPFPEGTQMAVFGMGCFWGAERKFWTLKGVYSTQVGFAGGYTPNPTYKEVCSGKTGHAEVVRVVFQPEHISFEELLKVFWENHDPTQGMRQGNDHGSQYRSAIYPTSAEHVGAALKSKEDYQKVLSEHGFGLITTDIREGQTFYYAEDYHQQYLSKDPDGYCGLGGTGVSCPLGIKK
# CHO = experiment: cytotoxicity in TLR9-MyD88 CHO cells, dose response, cytotoxicity control for TLR9-MyD88 binding inhibitor project, cell-based, luminescence (AID 588339); type: functional, hamster; details: Cricetulus griseus;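 also: CHO cells stably coexpressing TLR9 and MyD88 fusions from primary screen; compound exposure lasted 48 hours before viability readout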
# Beta Lactamase = Beta Lactamase (Pseudomonas aeruginosa, UniProt Q932Y6); experiment: beta-lactamase reporter inhibitor potency, dose response, artefact control for TLR9-MyD88 binding inhibitor project, BLA reporter cells, FRET fluorescence (AID 588341); type: cell-based;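 also: cell based assay in CHO-K1 cells stably expressing beta-lactamase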
# Sequence of Beta Lactamase (Q932Y6 whole entry): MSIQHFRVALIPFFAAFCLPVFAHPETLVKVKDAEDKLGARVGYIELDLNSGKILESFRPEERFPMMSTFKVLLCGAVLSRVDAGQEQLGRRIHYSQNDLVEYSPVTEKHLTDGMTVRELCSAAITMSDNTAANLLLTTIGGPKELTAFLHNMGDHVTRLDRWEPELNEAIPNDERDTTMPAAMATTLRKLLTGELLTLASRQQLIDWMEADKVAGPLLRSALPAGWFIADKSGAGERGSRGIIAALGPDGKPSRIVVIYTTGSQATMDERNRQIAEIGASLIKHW
# Melanocortin receptor 4 [15] = target: T1, Melanocortin receptor 4; experiment: MC4R antagonist potency on cAMP, dose response, cell-based, TR-FRET, biased antagonists (AID 602298); type: functional;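 also: antagonist potency against agonist-stimulated cAMP production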
# [16] = nonselective inhibitors of cellular cAMP signaling, dose response, counter-screen for MC4R biased antagonist project, cell-based, TR-FRET cAMP detection (AID 602305); type: functional;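 also: U2OS cells stimulated with forskolin near its EC80 as the cAMP inducer; potency is for inhibition of forskolin-stimulated cAMP signaling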
# [17] = ARNT/TACC3 interaction disruptors, potency, confirmation, biochemical, AlphaScreen, cherry-picked samples (AID 651703); type: functional, Homo sapiens;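 also: His-tagged ARNT PAS-B domain paired with GST-TACC3 E629A dimer coactivator fragment; potency of inhibitors that break up the complex and lower AlphaScreen signal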
# [18] = target: T5, Apoptotic protease-activating factor 1 (Homo sapiens, UniProt O14727); experiment: SAR analysis of small molecule Activators of Apaf-1 in a Fluorescent assay.; type: functional; details: read-out: EC50_Mean;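 also: caspase-3 cleavage of fluorogenic Rh110 DEVD substrate downstream of apoptosome activation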
# T5 sequence (O14727 whole entry): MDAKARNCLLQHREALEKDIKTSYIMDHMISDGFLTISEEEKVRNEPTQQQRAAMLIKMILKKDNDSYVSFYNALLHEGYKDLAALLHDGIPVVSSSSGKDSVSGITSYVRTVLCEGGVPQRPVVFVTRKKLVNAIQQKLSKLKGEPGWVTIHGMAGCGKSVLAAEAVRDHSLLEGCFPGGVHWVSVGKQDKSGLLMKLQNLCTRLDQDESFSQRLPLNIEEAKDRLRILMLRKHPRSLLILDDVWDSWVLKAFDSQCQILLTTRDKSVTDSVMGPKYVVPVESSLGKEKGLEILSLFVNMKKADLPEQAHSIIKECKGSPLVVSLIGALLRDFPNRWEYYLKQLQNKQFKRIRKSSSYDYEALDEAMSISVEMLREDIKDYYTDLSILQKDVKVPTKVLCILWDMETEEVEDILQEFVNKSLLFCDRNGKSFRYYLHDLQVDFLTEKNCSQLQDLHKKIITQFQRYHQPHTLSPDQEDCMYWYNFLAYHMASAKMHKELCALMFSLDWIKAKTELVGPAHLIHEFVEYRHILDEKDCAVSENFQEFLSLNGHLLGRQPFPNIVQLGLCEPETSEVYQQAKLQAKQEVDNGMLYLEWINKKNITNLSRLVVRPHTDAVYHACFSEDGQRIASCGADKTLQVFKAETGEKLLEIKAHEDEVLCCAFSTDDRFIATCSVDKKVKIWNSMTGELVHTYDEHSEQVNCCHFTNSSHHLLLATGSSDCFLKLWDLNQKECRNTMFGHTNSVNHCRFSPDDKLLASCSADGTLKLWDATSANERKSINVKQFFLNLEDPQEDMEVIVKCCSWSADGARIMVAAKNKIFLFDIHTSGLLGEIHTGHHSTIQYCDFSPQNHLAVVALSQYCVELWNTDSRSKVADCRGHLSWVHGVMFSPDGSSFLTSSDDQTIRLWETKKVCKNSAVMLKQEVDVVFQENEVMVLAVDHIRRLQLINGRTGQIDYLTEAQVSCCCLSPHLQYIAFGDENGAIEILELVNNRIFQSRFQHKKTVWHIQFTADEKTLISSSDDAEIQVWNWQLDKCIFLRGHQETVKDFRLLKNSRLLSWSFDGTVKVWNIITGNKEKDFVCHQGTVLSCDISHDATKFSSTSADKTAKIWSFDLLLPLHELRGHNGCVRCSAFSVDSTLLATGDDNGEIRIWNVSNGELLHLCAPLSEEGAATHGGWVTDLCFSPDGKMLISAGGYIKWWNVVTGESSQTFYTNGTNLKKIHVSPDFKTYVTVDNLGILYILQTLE
# [19] = target: Testis-specific serine/threonine-protein kinase 2 (Homo sapiens, UniProt Q96PF2); type: functional;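 also: part of the Navigating the Kinome panel, target entry STK22B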
# Sequence of Testis-specific serine/threonine-protein kinase 2 (Q96PF2 whole entry): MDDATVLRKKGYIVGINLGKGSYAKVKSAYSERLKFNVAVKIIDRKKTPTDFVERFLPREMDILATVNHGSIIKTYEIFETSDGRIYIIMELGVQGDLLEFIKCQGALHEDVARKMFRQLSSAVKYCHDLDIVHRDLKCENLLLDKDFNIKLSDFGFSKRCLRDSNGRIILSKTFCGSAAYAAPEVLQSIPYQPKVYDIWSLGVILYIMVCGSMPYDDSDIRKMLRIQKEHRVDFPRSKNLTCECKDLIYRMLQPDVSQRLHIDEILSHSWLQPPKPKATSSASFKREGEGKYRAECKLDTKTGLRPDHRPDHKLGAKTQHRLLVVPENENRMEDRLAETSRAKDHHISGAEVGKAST
structure (smiles),measurement,setting,value
COC(=O)c1c(NC(=O)CC2SC(N)=NC2=O)sc2c1CCC(C(C)(C)C)C2 (stereo unspecified),CC50,[1],> 40 µM (active)
same,EC50,Melanocortin receptor 4 [2],> 89.2 µM (inactive)
COc1ccc(NS(=O)(=O)c2ccc(N3CCN(CCO)CC3)c([N+](=O)[O-])c2)cc1,IC50,Protein Wnt-3a,0.83 µM (active)
CC(C)c1ccc(N2C(=O)/C(=C/NNC(=O)c3ccccc3O)C(=O)NC2=S)cc1,EC50,[3],7.63 µM (active)
same,EC50,Streptococcus,7.21 µM (active)
same,IC50,[4],52.9 µM (active)
same,IC50,[5],45.2 µM (active)
same,IC50,Prothrombin,48.4 µM (active)
O=C(CSc1nc2ccccc2c(=O)n1NC(=O)c1ccccc1)c1ccccc1,IC50,[6],0.513 µM (active)
Cn1c(=O)[nH]c(=O)c2c1nc(NCc1ccco1)n2Cc1ccccc1Cl,IC50,[7],> 73.4 µM (inactive)
CC(C)(C)NC(=O)CSc1nc2ccc(NC(=O)CSc3nnc(N)s3)cc2s1,IC50,[8],3.87 µM (active)
same,IC50,[9],18.4 µM (active)
same,IC50,[10],> 99 µM (inactive)
same,IC50,[11],1.54 µM (active)
same,IC50,[12],6.68 µM (active)
same,IC50,[13],17.1 µM (inactive)
O=C(O)c1ccc(NS(=O)(=O)c2ccc3c(c2)C(=O)c2ccccc2C3=O)cc1,IC50,[14],91.2 µM (inactive)
O=C(NCc1ccco1)c1cccc2c1C(=O)c1ccc(N3CCC(Cc4ccccc4)CC3)cc1S2(=O)=O,IC50,CHO,> 49.8 µM (inactive)
same,IC50,Beta Lactamase,4.4 µM (active)
CCc1nc2ccc(C(=O)NCc3ccc4c(c3)OCO4)cn2c1N(CCC(C)C)CCN(C)C,IC50,Melanocortin receptor 4 [15],11.5 µM (inactive)
same,IC50,[16],> 64.6 µM (inactive)
CC1CCCC(C)N1C(=O)COC(=O)c1ccc([N+](=O)[O-])o1 (stereo unspecified),AC50,[17],95.7 µM (active)
O=C1CC2(CC(c3ccccc3Cl)=NO2)C(=O)N1c1ccc2ccccc2c1 (stereo unspecified),EC50,[18],> 100 µM (inactive)
COc1ccc(/C=N/Nc2cc(C)nc(NS(=O)(=O)c3ccc(C)cc3)n2)cc1,IC50,Melanocortin receptor 4 [15],> 64.6 µM (inactive)
same,IC50,[16],> 64.6 µM (inactive)
CC1CCN(C(=O)CC#N)CC1N(C)c1ncnc2[nH]ccc12 (stereo unspecified),Ki,[19],> 1.58 µM (inactive)
